For assay [1], the target named is T1, Tie2 (Homo sapiens, UniProt Q02763). Nature of the assay: Tie2 ELISA assay (cellular Tie2 autophosphorylation). The settings on record: CHO cells stably transfected with Tie2, stimulated by angiopoietin-2; Tie2 autophosphorylation by sandwich-ELISA; read-out: Tie 2 activity (assay 1). Details: expressed in transfected cells; host or cells: CHO (CHO Tie2/DHFR). Format: cell-based. As to the method: Cellular activity of compounds of the present invention as inhibitors of Tie2 kinase activity was measured employing a Tie2 ELISA assay as described in the following paragraphs. Herein CHO cell-cultures, which are stably transfected by known techniques with Tie2 using DHFR deficiency as selection marker, are stimulated by angiopoietin-2. The specific autophosphorylation of Tie2 receptors is quantified with a sandwich-ELISA using anti-Tie2 antibodies for catch and anti-phosphotyrosine antibodies coupled to HRP for detection.
• 96 well tissue culture plate, sterile, Greiner • 96 well FluoroNunc plate MaxiSorp Surface C, Nunc • 96 well plate polypropylene for compound dilution in DMSO • CHO Tie2/DHFR (transfected cells) • PBS−; PBS++, DMSO • MEM alpha Medium with Glutamax-I without Ribonucleosides and Deoxyribonucleosides (Gibco #32561-029) • with 10% FCS after dialysis! and 1% PenStrep • Lysis buffer: 1 Tablet “Complete” protease inhibitor • 1 cap Vanadate (1 mL>40 mg/mL; working solution 2 mM) • ad 50 mL with Duschl-Puffer • pH 7.6 • Anti-Tie2-antibody 1:425 in Coating Buffer pH 9.6 • Stock solution: 1.275 mg/mL>working.: 3 μg/mL • PBST: 2 bottles PBS (10×)+10 ml Tween, fill up with VE-water • RotiBlock 1:10 in VE-water • Anti-Phosphotyrosine HRP-Conjugated 1:10000 in 3% TopBlock • 3% TopBlock in PBST • BM Chemiluminescence ELISA Substrate (POD) • solution B 1:100 solution A • SF9 cell culture medium • Ang2-Fc in SF9 cell culture medium
• Dispense 5×10^4 cells/well/98 μL in 96 well tissue culture plate • Incubate at 37° C./5% CO2 • After 24 h add compounds according to desired concentrations • Add also to control and stimulated values without compounds 2 μL DMSO • And mix for a few min at room temperature • Add 100 μL Ang2-Fc to all wells except control, which receives insect medium • Incubate 20 min at 37° C. • Wash 3× with PBS++ • Add 100 μl Lysis buffer/well and shake a couple of min at room temperature • Store lysates at […] before utilizing for the ELISA
• Coat 96 well FluoroNunc Plate MaxiSorp Surface C with anti-Tie2 mAb 1:425 in Coating buffer pH 9.6; 100 μL/well overnight at 4° C. • Wash 2× with PBST • Block plates with 250 μL/well RotiBlock 1:10 in VE-water • Incubate for 2 h at room temperature or overnight at 4° C. shaking • Wash 2× in PBST • Add thawed lysates to wells and incubate overnight shaking at 4° C. • Wash 2× with PBST • Add 100 μL/well anti-Phosphotyrosine HRP-Conjugated 1:10000 in 3% TopBlock (3% TopBlock in PBST) and incubate overnight under shaking • Wash 6× with PBST • Add 100 μL/well BM Chemiluminescence ELISA Substrate (POD) solutions 1 und 2 (1:100) • Determine luminescence with the LumiCount. Assay 2: Tie-2-Kinase HTRF-Assay without Kinase Preactivation
In general terms: An ELISA detects its analyte on a solid surface through an enzyme-linked reagent.
Target sequence in this assay (Q02763 23-1124, species assumed): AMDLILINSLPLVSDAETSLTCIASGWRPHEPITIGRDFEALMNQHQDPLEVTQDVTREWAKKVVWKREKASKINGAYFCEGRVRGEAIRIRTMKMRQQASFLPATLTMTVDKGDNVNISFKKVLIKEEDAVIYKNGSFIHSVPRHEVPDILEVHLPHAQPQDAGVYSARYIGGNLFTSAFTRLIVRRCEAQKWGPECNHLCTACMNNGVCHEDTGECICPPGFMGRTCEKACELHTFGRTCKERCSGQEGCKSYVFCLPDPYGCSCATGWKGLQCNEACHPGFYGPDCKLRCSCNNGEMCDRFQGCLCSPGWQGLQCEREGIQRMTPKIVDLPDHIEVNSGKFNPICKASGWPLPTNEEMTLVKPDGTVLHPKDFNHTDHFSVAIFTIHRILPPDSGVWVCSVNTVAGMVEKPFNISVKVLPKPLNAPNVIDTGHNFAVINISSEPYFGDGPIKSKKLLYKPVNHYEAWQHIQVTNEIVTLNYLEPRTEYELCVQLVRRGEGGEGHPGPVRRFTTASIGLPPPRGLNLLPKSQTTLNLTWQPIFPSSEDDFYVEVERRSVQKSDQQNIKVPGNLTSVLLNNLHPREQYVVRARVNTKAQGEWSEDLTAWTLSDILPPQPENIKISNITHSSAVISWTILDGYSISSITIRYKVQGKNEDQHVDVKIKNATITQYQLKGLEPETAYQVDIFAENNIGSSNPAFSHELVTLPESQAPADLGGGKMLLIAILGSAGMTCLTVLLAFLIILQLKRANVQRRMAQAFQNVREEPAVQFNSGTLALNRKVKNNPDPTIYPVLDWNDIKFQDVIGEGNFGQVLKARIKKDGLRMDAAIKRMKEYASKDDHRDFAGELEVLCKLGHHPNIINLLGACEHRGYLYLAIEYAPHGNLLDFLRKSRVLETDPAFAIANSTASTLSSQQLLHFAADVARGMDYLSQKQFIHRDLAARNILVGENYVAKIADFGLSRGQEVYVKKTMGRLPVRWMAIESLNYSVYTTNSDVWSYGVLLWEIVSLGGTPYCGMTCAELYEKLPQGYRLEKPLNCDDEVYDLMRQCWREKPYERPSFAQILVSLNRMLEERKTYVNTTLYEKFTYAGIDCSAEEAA

In assay [2] the target is T1, Tie2. The assay is described as follows: Tie-2-Kinase HTRF-Assay without kinase preactivation. The format is biochemical. Details: fusion protein of GST and the intracellular domains of Tie-2; GST; made in house; host or cells: insect cells (Hi-5). The settings on record: GST-Tie-2 intracellular domains, 10 μM ATP. An excerpt:
Tie2-inhibitory activity of compounds of the present invention was quantified employing two Tie2 HTRF assay as described in the following paragraphs.
A recombinant fusion protein of GST and the intracellular domains of Tie-2, expressed in insect cells (Hi-5) and purified by Glutathion-Sepharose affinity chromatography was used as kinase. Alternatively, commercially available GST-Tie2-fusion protein (Upstate Biotechnology, Dundee, Scotland) can be used As substrate for the kinase reaction the biotinylated peptide biotin-Ahx-EPKDDAYPLYSDFG (C-terminus in amid form) was used which can be purchased e.g. from the company Biosynthan GmbH (Berlin-Buch, Germany). Detection of phosphorylated product is achieved specifically by a trimeric detection complex consisting of the phosphorylated substrate, streptavidin-XLent (SA-XLent) which binds to biotin, and Europium Cryptate-labeled anti-phosphotyrosine antibody PT66 which binds to phosphorylated tyrosine.
Tie-2 (3.5 ng/measurement point) was incubated for 60 min at 22° C. in the presence of 10 μM adenosine-tri-phosphate (ATP) and 1 μM substrate peptide (biotin-Ahx-EPKDDAYPLYSDFG-NH2) with different concentrations of test compounds (0 μM and concentrations in the range 0.001-20 μM) in 5 μl assay buffer [50 mM Hepes/NaOH pH 7, 10 mM MgCl2, 0.5 mM MnCl2, 1.0 mM dithiothreitol, 0.01% NP40, protease inhibitor mixture (“Complete w/o EDTA” from Roche, 1 tablet per 2.5 ml), 1% (v/v) dimethylsulfoxide]. The reaction was stopped by the addition of 5 μl of an aqueous buffer (25 mM Hepes/NaOH pH 7.5, 0.28% (w/v) bovine serum albumin) containing EDTA (90 mM) and the HTRF (Homogeneous Time Resolved Fluorescence) detection reagents streptavidine-XLent (0.2 μM, from Cis Biointernational, Marcoule, France) and PT66-Eu-Chelate (0.3 ng/μl; a europium-chelate labelled anti-phospho-tyrosine antibody from Perkin Elmer).
The resulting mixture was incubated 1 h at 22° C. to allow the binding of the biotinylated phosphorylated peptide to the streptavidine-XLent and the PT66-Eu-Chelate. Subsequently the amount of phosphorylated substrate peptide was evaluated by measurement of the resonance energy transfer from the PT66-Eu-Chelate to the streptavidine-XLent. Therefore, the fluorescence emissions at 620 nm and 665 nm after excitation at 350 nm was measured in a HTRF reader, e.g. a Rubystar (BMG Labtechnologies, Offenburg, Germany) or a Viewlux (Perkin-Elmer). The ratio of the emissions at 665 nm and at […] was taken as the measure for the amount of phosphorylated substrate peptide. The data were normalised (enzyme reaction without inhibitor=0% inhibition, all other assay components but no enzyme=100% inhibition) and IC50 values were calculated by a 4 parameter fit using an inhouse software.
Target sequence in this assay (Q02763 770-1124 limits assumed, species assumed): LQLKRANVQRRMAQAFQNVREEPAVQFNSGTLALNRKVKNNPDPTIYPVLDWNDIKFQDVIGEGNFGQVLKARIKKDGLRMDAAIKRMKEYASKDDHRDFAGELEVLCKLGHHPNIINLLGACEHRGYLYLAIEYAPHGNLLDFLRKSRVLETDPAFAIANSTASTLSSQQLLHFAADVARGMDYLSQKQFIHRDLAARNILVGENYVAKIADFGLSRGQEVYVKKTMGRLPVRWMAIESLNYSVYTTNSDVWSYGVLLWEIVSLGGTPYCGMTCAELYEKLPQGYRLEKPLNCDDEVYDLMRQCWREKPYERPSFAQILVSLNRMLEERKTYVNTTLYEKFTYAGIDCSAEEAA
(In general: TR-FRET usually uses a lanthanide donor and a delayed reading to cut background.)

Experimental findings from patent US20090062273A1, “3-H-pyrazolopyridines and salts thereof, pharmaceutical compositions comprising same, methods of preparing same and uses of same” (priority 2006, published 2009) are described below.

Bounds are passed on as bounds.

As to `Cn1ncc2c(-c3ccc(NC(=O)Nc4cccc(C(F)(F)F)c4)c(F)c3)cncc21` [Example 3.1, 1-[2-Fluoro-4-(1-methyl-1H-pyrazolo[3,4-c]pyridin-4-yl)-phenyl]-3-(3-trifluoromethyl-phenyl)-urea], the IC50 in assay [1] and in assay [2] was less than 501 nM each time.
For the compound `O=C(Nc1ccc(-c2cncc3c2cnn3CCO)cc1)Nc1cc(C(F)(F)F)ccc1F` [Example 8.2, 1-(2-Fluoro-5-trifluoromethyl-phenyl)-3-{4-[1-(2-hydroxy-ethyl)-1H-pyrazolo[3,4-c]pyridin-4-yl]-phenyl}-urea], the IC50 in assay [1] and in assay [2] was less than 501 nM throughout.
For `O=C(Nc1cccc(C(F)(F)F)c1)Nc1ccc(-c2cncc3c2cnn3CCO)cc1F` [Example 8.5, 1-{2-Fluoro-4-[1-(2-hydroxy-ethyl)-1H-pyrazolo[3,4-c]pyridin-4-yl]-phenyl}-3-(3-trifluoromethyl-phenyl)-urea], the IC50 in assay [1] and in assay [2] was less than 501 nM throughout.
Consider `Cn1ncc2c(-c3ccc(NC(=O)Nc4cccc(C(F)(F)F)c4)cc3)cncc21` [Example 1.4, 1-[4-(1-Methyl-1H-pyrazolo[3,4-c]pyridin-4-yl)-phenyl]-3-(3-trifluoromethyl-phenyl)-urea], for which the IC50 in assay [1] and in assay [2] was less than 501 nM throughout.
In the case of `COc1cccc(-n2nc(C(C)(C)C)cc2NC(=O)Nc2ccc(-c3cncc4c3cnn4C)cc2)c1` [Example 15.5, 1-[5-tert-Butyl-2-(3-methoxy-phenyl)-2H-pyrazol-3-yl]-3-[4-(1-methyl-1H-pyrazolo[3,4-c]pyridin-4-yl)-phenyl]-urea], the IC50 in assay [1] and in assay [2] was less than 501 nM in each case.
With `Cn1ncc2c(-c3ccc(NC(=O)Nc4cc(C(C)(C)C)nn4-c4cncc(F)c4)cc3)cncc21` [Example 15.12, 1-[5-tert-Butyl-2-(5-fluoro-pyridin-3-yl)-2H-pyrazol-3-yl]-3-[4-(1-methyl-1H-pyrazolo[3,4-c]pyridin-4-yl)-phenyl]-urea], the IC50 in assay [1] and in assay [2] was less than 501 nM in each case.
In the case of `CCn1ncc2c(-c3ccc(NC(=O)Nc4cc(C)ccc4F)c(F)c3)cncc21` [Example 11.3, 1-[4-(1-Ethyl-1H-pyrazolo[3,4-c]pyridin-4-yl)-2-fluoro-phenyl]-3-(2-fluoro-5-methyl-phenyl)-urea], the IC50 in assay [1] and in assay [2] was less than 501 nM throughout.
Consider `Cn1ncc2c(-c3ccc(NC(=O)Nc4cc(C(C)(C)C)nn4-c4ccncc4)cc3)cncc21` [Example 15.10, 1-(5-tert-Butyl-2-pyridin-4-yl-2H-pyrazol-3-yl)-3-[4-(1-methyl-1H-pyrazolo[3,4-c]pyridin-4-yl)-phenyl]-urea], for which the IC50 in assay [1] and in assay [2] was less than 501 nM throughout.
In the case of `COCCn1ncc2c(-c3ccc(NC(=O)Nc4cc(C)ccc4F)cc3)cncc21` [Example 12.3, 1-(2-Fluoro-5-methyl-phenyl)-3-{4-[1-(2-methoxy-ethyl)-1H-pyrazolo[3,4-c]pyridin-4-yl]-phenyl}-urea], the IC50 in assay [1] and in assay [2] was less than 501 nM each time.
For `Cn1ncc2c(-c3ccc(NC(=O)Nc4cc(C(F)(F)F)ccn4)cc3)cncc21` [Example 1.9, 1-[4-(1-Methyl-1H-pyrazolo[3,4-c]pyridin-4-yl)-phenyl]-3-(4-trifluoromethyl-pyridin-2-yl)-urea], the IC50 in assay [1] and in assay [2] was less than 501 nM throughout.
With `CN(C(=O)Nc1cccc(C(F)(F)F)c1)c1ccc(-c2cncc3c2cnn3C)cc1` [Example 6.1, 1-Methyl-1-[4-(1-methyl-1H-pyrazolo[3,4-c]pyridin-4-yl)-phenyl]-3-(3-trifluoromethyl-phenyl)-urea], the IC50 in assay [1] and in assay [2] was 501 to 1000 nM throughout.
On to `CCn1ncc2c(-c3ccc(NC(=O)Nc4cc(C(F)(F)F)ccc4F)c(F)c3)cncc21` [Example 11.2, 1-[4-(1-Ethyl-1H-pyrazolo[3,4-c]pyridin-4-yl)-2-fluoro-phenyl]-3-(2-fluoro-5-trifluoromethyl-phenyl)-urea], for which the IC50 in assay [1] and in assay [2] was less than 501 nM each time.
For the compound `COCCn1ncc2c(-c3ccc(NC(=O)Nc4cccc(C(F)(F)F)c4)cc3)cncc21` [Example 12.1, 1-{4-[1-(2-Methoxy-ethyl)-1H-pyrazolo[3,4-c]pyridin-4-yl]-phenyl}-3-(3-trifluoromethyl-phenyl)-urea], the IC50 in assay [1] and in assay [2] was less than 501 nM in each case.
For the compound `CN1CCN(Cc2ccc(NC(=O)Nc3ccc(-c4cncc5c4cnn5C)cc3F)cc2C(F)(F)F)CC1` [Example 13.6, 1-[2-Fluoro-4-(1-methyl-1H-pyrazolo[3,4-c]pyridin-4-yl)-phenyl]-3-[4-(4-methyl-piperazin-1-ylmethyl)-3-trifluoromethyl-phenyl]-urea], the IC50 in assay [1] and in assay [2] was less than 501 nM in each case.
For `Cn1ncc2c(-c3ccc(NC(=O)Nc4cc(C(F)(F)F)ccc4F)c(F)c3)cncc21` [Example 6.3, 1-[2-Fluoro-4-(1-methyl-1H-pyrazolo[3,4-c]pyridin-4-yl)-phenyl]-3-(2-fluoro-5-trifluoromethyl-phenyl)-urea], the IC50 in assay [1] and in assay [2] was less than 501 nM in each case.
Consider `Cc1ccc(F)c(NC(=O)Nc2ccc(-c3cncc4c3cnn4C)cc2)c1` [Example 1.3, 1-(2-Fluoro-5-methyl-phenyl)-3-[4-(1-methyl-1H-pyrazolo[3,4-c]pyridin-4-yl)-phenyl]-urea], for which the IC50 in assay [1] and in assay [2] was less than 501 nM throughout.
Consider `CCn1ncc2c(-c3ccc(NC(=O)Nc4cccc(C(F)(F)F)c4)c(F)c3)cncc21` [Example 11.1, 1-[4-(1-Ethyl-1H-pyrazolo[3,4-c]pyridin-4-yl)-2-fluoro-phenyl]-3-(3-trifluoromethyl-phenyl)-urea], for which the IC50 in assay [1] and in assay [2] was less than 501 nM each time.
